This note sets out measurements from patent publication US20140135310A1, “SULPHONAMIDE DERIVATIVES OF ALICYCLIC AMINES FOR THE TREATMENT OF CENTRAL NERVOUS SYSTEM DISEASES” (Adamed Sp. z o.o., priority 2011, published 2014).

The target of test [1] is T1, 5-HT1A receptor (rat hippocampus) (Rattus norvegicus, UniProt P19327).
T1 construct: hippocampus; from tissue; host or cells: rat hippocampus
T1 sequence (P19327 1-422): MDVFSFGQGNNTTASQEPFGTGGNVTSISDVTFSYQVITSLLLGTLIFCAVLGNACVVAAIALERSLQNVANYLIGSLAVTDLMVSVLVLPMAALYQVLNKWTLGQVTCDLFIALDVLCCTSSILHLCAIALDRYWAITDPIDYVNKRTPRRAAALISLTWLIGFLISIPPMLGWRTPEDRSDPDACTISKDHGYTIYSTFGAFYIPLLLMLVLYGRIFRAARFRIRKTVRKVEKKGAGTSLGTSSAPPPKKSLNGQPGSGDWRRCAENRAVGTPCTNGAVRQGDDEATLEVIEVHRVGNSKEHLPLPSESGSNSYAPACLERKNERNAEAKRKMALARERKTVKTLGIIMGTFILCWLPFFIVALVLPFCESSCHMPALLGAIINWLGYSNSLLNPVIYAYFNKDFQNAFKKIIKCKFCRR
Briefly: Radioligand binding assay, serotoninergic 5-HT1A receptors. The conditions noted are these: binding assay result in %, Table 5a.

Test [2] deals with T2, serotonin transporter (SERT) (Homo sapiens, UniProt P31645).
T2 construct: expressed in transfected cells; host or cells: CHO cells
T2 sequence (P31645 whole entry): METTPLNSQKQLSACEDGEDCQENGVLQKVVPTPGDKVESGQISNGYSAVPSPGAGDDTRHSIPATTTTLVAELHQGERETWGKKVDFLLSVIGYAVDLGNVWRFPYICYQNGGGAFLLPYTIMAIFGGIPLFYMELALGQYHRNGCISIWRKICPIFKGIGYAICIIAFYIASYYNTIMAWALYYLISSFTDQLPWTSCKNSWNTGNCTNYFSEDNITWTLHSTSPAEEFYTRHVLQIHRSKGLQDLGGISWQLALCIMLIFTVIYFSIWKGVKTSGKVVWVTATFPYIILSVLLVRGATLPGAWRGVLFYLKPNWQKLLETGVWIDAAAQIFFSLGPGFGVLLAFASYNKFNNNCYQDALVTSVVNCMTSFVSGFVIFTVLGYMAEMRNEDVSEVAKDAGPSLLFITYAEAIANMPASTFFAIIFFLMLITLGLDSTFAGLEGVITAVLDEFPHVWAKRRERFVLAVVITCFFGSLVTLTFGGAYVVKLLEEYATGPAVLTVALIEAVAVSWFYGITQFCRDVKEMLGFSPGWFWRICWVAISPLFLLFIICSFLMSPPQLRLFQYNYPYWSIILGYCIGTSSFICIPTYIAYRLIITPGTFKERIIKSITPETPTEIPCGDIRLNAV
Briefly: Radioligand binding assay, serotonin transporter (SERT). The settings on record: for Ki: read-out: Inhibition constants Ki for SERT, SERT. Summed up: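 Radioligand competition binding with scintillation detection; specific binding is total minus binding under excess unlabelled ligand. Reported as % of control specific binding or % inhibition; IC50 from Hill-equation non-linear regression of competition curves, and Ki via Cheng-Prusoff using radioligand concentration and Scatchard-derived KD.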

Another test concerns the target T3, 5-HT2C receptor (Homo sapiens, UniProt P28335).
T3 construct: expressed in transfected cells; host or cells: HEK-293 cells
T3 sequence (P28335 33-458): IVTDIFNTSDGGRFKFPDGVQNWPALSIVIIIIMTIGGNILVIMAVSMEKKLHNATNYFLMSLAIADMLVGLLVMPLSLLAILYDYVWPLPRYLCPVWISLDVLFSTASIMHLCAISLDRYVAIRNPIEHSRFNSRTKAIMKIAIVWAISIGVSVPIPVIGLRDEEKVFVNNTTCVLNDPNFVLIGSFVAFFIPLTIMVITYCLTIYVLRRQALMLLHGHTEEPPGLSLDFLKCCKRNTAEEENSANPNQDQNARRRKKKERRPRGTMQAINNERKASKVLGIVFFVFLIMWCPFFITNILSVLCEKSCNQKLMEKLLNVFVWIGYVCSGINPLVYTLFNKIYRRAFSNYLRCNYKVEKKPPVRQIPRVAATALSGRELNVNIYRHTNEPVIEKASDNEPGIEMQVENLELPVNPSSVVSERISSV
Briefly: Radioligand binding assay, serotoninergic 5-HT2C receptors. The settings on record: test compound 1×10^−6 M.

The target in another test is T4, 5-HT7 receptor (Homo sapiens, UniProt P34969).
T4 construct: purchased PerkinElmer
T4 sequence (P34969 whole entry): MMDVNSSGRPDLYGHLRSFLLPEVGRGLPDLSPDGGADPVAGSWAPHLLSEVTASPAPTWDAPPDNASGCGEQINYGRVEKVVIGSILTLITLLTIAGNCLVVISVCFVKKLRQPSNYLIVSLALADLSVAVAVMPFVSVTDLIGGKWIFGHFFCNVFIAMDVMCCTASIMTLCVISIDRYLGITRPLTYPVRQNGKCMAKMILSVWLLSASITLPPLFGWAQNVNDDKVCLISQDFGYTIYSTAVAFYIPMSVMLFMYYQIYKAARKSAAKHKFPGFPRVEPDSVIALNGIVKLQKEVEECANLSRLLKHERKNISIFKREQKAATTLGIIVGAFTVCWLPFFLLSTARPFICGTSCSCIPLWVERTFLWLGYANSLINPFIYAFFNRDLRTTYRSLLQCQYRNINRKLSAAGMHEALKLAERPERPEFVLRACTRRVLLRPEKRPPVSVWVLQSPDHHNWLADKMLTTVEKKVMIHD
As to the kind of experiment: Radioligand binding assay, serotoninergic 5-HT7 receptors. The settings on record: binding assay result in %, Table 5a. Summed up:
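Competition binding at human 5-HT7 receptors with a radioligand, detected by scintillation counting; non-specific binding was defined with excess unlabelled ligand. IC50 came from Hill-equation fits of competition curves, and Ki from Cheng–Prusoff using radioligand concentration and Scatchard-derived KD.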

Test [3] has as its target T5, H1 histaminergic receptors (Homo sapiens, UniProt P35367).
T5 construct: expressed in transfected cells; host or cells: HEK-293 cells
Briefly: Radioligand binding assay, histaminergic H1 receptors. The conditions noted are these: human recombinant (HEK-293 cells), [3H]pyrilamine 1 nM. The source says:
The specific ligand binding to the receptors is defined as the difference between the total binding and the non-specific binding determined in the presence of the excess of unlabelled ligand.
The results are expressed as a percent of control specific binding ((measured specific binding/control specific binding)×100) and as a percent inhibition of control specific binding (100−((measured specific binding/control specific binding)×100)) obtained in the presence of the test compounds. The specific ligand binding to the receptors is defined as the difference between the total binding and the nonspecific binding determined in the presence of an excess of unlabelled ligand. Scintillation counting was the method of detection of ligand binding. The IC50 values (concentration causing a half-maximal inhibition of control specific binding) were determined by non-linear regression analysis of the competition curves generated with mean replicate values using Hill equation curve fitting (Y=D+[(A−D)/(1+(C/C50)nH)], where Y=specific binding, D=minimum specific binding, A=maximum specific binding, C=compound concentration, C50=IC50, and nH=slope factor). This analysis was performed using a software developed at Cerep (Hill software) and validated by comparison with data generated by the commercial software SigmaPlot® 4.0 for Windows® (© 1997 by SPSS Inc.). The inhibition constants (Ki) were calculated using the Cheng Prusoff equation (Ki=IC50/(1+(L/KD)), where L=concentration of radioligand in the assay, and KD=affinity of the radioligand for the receptor). A scatchard plot was used to determine the Kd.
Experimental conditions for tests are given in Table 14, and results of tests for representative compounds are presented in Table 15.

Test [4] deals with dopaminergic receptors D2 (Homo sapiens, UniProt P14416). Briefly: Radioligand binding assay, dopaminergic D2 receptors. The conditions noted are these: binding assay, test compound 1×10^−6 M. In a few lines: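 Radioligand displacement was measured by scintillation counting, with non-specific binding defined in the presence of excess unlabelled ligand. Competition curves were fitted to the Hill equation to give IC50, and Ki was derived by the Cheng–Prusoff equation.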
dopaminergic receptors D2, sequence (P14416 whole entry): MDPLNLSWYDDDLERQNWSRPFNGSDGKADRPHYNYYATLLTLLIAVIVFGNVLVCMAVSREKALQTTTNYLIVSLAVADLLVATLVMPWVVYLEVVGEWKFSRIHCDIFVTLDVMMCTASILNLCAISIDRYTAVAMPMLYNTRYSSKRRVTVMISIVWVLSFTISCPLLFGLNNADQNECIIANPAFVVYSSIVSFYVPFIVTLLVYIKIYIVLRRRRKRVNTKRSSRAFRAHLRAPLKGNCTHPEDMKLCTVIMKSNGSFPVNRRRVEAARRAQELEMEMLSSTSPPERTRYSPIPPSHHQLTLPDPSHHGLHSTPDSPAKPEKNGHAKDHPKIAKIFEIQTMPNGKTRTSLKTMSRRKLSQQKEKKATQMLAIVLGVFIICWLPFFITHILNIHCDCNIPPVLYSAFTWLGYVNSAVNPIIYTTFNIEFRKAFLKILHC

Another test concerns the target T6, α2C adrenergic receptors (Homo sapiens, UniProt P18825).
T6 construct: expressed in transfected cells; host or cells: CHO cells
T6 sequence (P18825 1-462): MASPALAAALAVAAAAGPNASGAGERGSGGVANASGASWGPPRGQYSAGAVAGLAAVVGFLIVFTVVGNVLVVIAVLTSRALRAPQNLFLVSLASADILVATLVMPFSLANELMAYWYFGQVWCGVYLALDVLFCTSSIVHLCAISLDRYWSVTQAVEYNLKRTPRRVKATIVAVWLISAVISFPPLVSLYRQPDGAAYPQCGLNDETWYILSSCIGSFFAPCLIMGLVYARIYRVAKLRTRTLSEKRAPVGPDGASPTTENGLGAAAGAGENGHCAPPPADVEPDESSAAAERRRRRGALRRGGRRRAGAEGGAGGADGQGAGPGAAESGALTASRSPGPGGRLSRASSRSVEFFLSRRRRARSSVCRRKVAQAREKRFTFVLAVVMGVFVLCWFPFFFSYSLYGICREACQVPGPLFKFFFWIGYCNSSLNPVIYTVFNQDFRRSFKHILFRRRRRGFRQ
Briefly: Radioligand binding assay, adrenergic α2C receptors. The settings on record: test compound 1×10^−6 M. In a few lines:
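Competitive radioligand binding at human α2C receptors, with scintillation counting. Nonspecific binding defined with excess unlabelled ligand; results given as % inhibition of control specific binding. IC50 from Hill-equation fits of competition curves; Ki via Cheng-Prusoff using radioligand concentration and Scatchard-derived KD.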

Where [5] appears, read: binding assay, test compound 1×10^−6 M.

T5 sequence (P35367 whole entry): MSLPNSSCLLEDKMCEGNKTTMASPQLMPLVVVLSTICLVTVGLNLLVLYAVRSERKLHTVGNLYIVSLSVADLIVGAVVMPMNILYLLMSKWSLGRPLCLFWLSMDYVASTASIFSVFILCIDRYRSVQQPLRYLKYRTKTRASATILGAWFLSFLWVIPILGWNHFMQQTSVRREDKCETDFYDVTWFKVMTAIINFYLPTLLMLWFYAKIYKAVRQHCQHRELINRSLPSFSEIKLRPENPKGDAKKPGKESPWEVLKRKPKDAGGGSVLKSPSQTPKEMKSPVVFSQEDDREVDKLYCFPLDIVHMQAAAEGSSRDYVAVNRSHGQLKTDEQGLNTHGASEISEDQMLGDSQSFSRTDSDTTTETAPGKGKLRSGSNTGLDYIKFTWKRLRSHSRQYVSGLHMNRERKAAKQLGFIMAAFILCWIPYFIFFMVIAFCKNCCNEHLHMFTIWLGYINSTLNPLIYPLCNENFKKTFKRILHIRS

The term inhibition denotes the relative decrease from the control value, in per cent. Turning to `O=S(=O)(NC1CCN(CCCc2noc3cc(F)ccc23)CC1)c1cccc2ccccc12` [Compound 34, N-[1-[3-(6-Fluoro-1,2-benzoxazol-3-yl)propyl]-4-piperidine]-naphthalene-1-sulphonamide], the inhibition at 1 µM in test [1] is 32%; in test [2] (setting [5]), 43%; on 5-HT2C receptor it was 94%; at 5-HT7 receptor it was 100%; in test [3], 56%; in test [4], 76%. Further, the inhibition at 1 µM at α2C adrenergic receptors came out at 94%.
As for `O=S(=O)(NC1CN(CCOc2cccc3[nH]ccc23)C1)c1ccc(F)cc1` [Compound 46, 4-Fluoro-N-[1-[2-(1H-indol-4-yloxy)ethyl]azetidin-3-yl]benzene-sulphonamide], the inhibition at 1 µM is 101% in test [1]; 7% in test [2] (setting [5]); 21% at 5-HT2C receptor; 100% on 5-HT7 receptor; 6% in test [3]; 93% in test [4]. Moreover, the inhibition at 1 µM at α2C adrenergic receptors is 101%.
`O=S(=O)(NC1CN(CCOc2cccc3[nH]ccc23)C1)c1cccc(Cl)c1` [Compound 47, 3-Chloro-N-[1-[2-(1H-indol-4-yloxy)ethyl]azetidin-3-yl]benzene-sulphonamide]: the inhibition at 1 µM in test [1] was 98%; in test [2] (setting [5]), 6%; on 5-HT2C receptor, 33%; at 5-HT7 receptor it was 100%; in test [3], -3%; in test [4] it was 83%. The inhibition at 1 µM on α2C adrenergic receptors was 80%.
As to `Cc1cccc(S(=O)(=O)NC2CN(CCOc3cccc4[nH]ccc34)C2)c1` [Compound 48, N-[1-[2-(1H-Indol-4-yloxy)ethyl]azetidin-3-yl]-3-methyl-benzenesulphonamide], the inhibition at 1 µM in test [1] was 100%; in test [2] (setting [5]), -3%; at 5-HT2C receptor it was 32%; at 5-HT7 receptor it was 98%; in test [3] it was 21%; in test [4] it was 84%. The inhibition at 1 µM on α2C adrenergic receptors is 105%.
With `O=S(=O)(NC1CN(CCOc2cccc3[nH]ccc23)C1)c1ccc2ccccc2c1` [Compound 50, N-[1-[2-(1H-Indol-4-yloxy)ethyl]azetidin-3-yl]naphthalene-2-sulphonamide], the inhibition at 1 µM turned out to be 101% in test [1]; 20% in test [2] (setting [5]); 54% at 5-HT2C receptor; 99% at 5-HT7 receptor; 34% in test [3]; 96% in test [4]. Moreover, the inhibition at 1 µM on α2C adrenergic receptors turned out to be 108%.
Regarding `O=S(=O)(NC1CCN(CCOc2cccc3[nH]ccc23)CC1)c1ccccc1` [Compound 55, N-[1-[2-(1H-Indol-4-yloxy)ethyl]-4-piperidine]benzenesulphonamide], the “5-HT1A [%]” value in test [1] is on record as 96%. Besides, the “SERT [%]” value in test [2] (setting [5]) is on record as 6%. The “5-HT2C [%]” value at 5-HT2C receptor came to 30%. For the same compound, the “5-HT7 [%]” value at 5-HT7 receptor was 96%. In addition, in test [3], the “H1 [%]” value is on record as 0%. Also, the “D2 [%]” value in test [4] stood at 44%. The “α2C [%]” value at α2C adrenergic receptors came to 99%.
What is called Ki is a dissociation constant, usually derived from enzyme kinetics or from competition with a known ligand. As for `O=S(=O)(NC1CCN(CCCc2c[nH]c3ccc(F)cc23)C1)c1ccc(F)cc1` (centres unmarked) [Compound 75, 4-Fluoro-N-[1-[3-(5-fluoro-1H-indol-3-yl)propyl]pyrrolidin-3-yl]benzene-sulphonamide], the inhibition at 1 µM turned out to be 100% in test [1]; 103% in test [2] (setting [5]); 83% at 5-HT2C receptor; 90% on 5-HT7 receptor; 57% in test [3]; 91% in test [4]. Moreover, at α2C adrenergic receptors, the inhibition at 1 µM amounted to 76%. In test [2], the inhibition constant Ki was determined as 1.5 nM.
As to `O=S(=O)(NC1CCN(CCCc2c[nH]c3ccc(F)cc23)C1)c1ccc(Cl)cc1` (centres unmarked) [Compound 77, 4-Chloro-N-[1-[3-(5-fluoro-1H-indol-3-yl)propyl]pyrrolidin-3-yl]-benzenesulphonamide], the inhibition at 1 µM was 99% in test [1]; 104% in test [2] (setting [5]); 77% on 5-HT2C receptor; 89% on 5-HT7 receptor; 54% in test [3]; 93% in test [4]. The inhibition at 1 µM at α2C adrenergic receptors is 78%. In addition, the inhibition constant Ki in test [2] came to 0.5 nM.
`Cc1cccc(S(=O)(=O)NC2CCN(CCCc3c[nH]c4ccc(F)cc34)C2)c1` (centres unmarked) [Compound 78, N-[1-[3-(5-Fluoro-1H-indol-3-yl)propyl]pyrrolidin-3-yl]-3-methyl-benzenesulphonamide]: the inhibition at 1 µM in test [1] was 99%; in test [2] (setting [5]), 101%; on 5-HT2C receptor, 78%; on 5-HT7 receptor it was 89%; in test [3] it was 65%; in test [4], 89%. In addition, the inhibition at 1 µM on α2C adrenergic receptors came to 85%. In test [2], the Ki was found to be 1 nM.
As to `O=S(=O)(NC1CCN(CCCc2c[nH]c3ccc(Cl)cc23)C1)c1cccc(F)c1` (centres unmarked) [Compound 82, N-[1-[3-(5-Chloro-1H-indol-3-yl)propyl]pyrrolidin-3-yl]-3-fluoro-benzene-sulphonamide], the inhibition at 1 µM stood at 99% in test [1]; 100% in test [2] (setting [5]); 82% on 5-HT2C receptor; 96% at 5-HT7 receptor; 61% in test [3]; 90% in test [4]. Further, the inhibition at 1 µM on α2C adrenergic receptors is 101%. Moreover, in test [2], the inhibitory constant (Ki) turned out to be 1.3 nM.
